Reference: patent US11014943B2, “Azetidine derivative” (CHIA TAI TIANQING PHARMACEUTICAL GROUP CO., LTD., priority 2017, dated 2021)

Experiments:
MM1.S cells = experiment: In vitro anti-proliferation test on MM1.S cells (CellTiter-Glo); type: cell-based; conditions: Homo sapiens, 48 h, 2 days incubation, cell viability
Method: This test was aimed to investigate the inhibitory effect of a compound on cell proliferation by determining the effect of the compound on cell viability in tumor cell line MM1.S in vitro.
MM1.S cells were seeded into a black 96-well cell culture plate at a density of 7,000 cells per well, and then the plate was incubated overnight in an incubator with 5% CO2 and 100% relative humidity at 37° C. A solution of a test compound in DMSO was added to the cell culture wells at a certain concentration (0.3 to 2000 nM), and then the culture plate was placed back to the incubator, and a vehicle control (containing DMSO with no compound) and a blank control were provided.
The culture plate was incubated in the incubator with 5% CO2 and 100% relative humidity at 37° C. for 2 days. The sample was treated using the Promega CellTiter-Glo Luminescent Cell Viability Assay Kit (Promega-G7571) standard method, and a luminescent signal was detected on the SpectraMax i3x of Molecular Devices plate reader. The inhibition rate of the test compound was calculated through the following equation using original data: […]
RLU represents a relative luminescence intensity.

[1] = Liver microsome stability test, mouse; type: in vitro ADME; conditions: mouse liver microsomes; CD-1 mouse (M) liver microsome; read-out: Liver microsome stability (T1/2, min)
Method: (§1) A test compound was incubated with CD-1 mouse liver microsome, SD rat liver microsome, and human liver microsome, respectively, to evaluate the stability of the test compound.
(§2) Preparation of a solution sample of the test compound: 10 mM solution (5 μL) of a compound prepared in the Example in DMSO was added to a mixed solvent (450 μL) of DMSO (45 μL), methanol and water (a volume ratio of methanol to water was 1:1) to prepare a 100 μM solution of the test compound; and 50 μL of the 100 μM solution of the test compound was added to 450 μL of 100 mM potassium phosphate buffer to obtain a 10 μM solution of the test compound.
(§3) The 10 μM solution of the test compound was pre-incubated with the microsome from the above three species for 10 minutes, respectively, and then a working solution of a reduced nicotinamide adenine dinucleotide phosphate (NADPH) regeneration system was added to the incubation plate at each time point to initiate the reaction, and finally a stop solution (100% ACN) was added to the reaction plate to terminate the reaction at 0, 5, 10, 20, 30 and 60-minute. The test compound was determined by LC-MS/MS method.

[2] = Liver microsome stability test, rat; type: in vitro ADME; conditions: rat liver microsomes; SD rat (R) liver microsome; read-out: Liver microsome stability (T1/2, min)
Method: as §1, §2, §3

[3] = Liver microsome stability test, human; type: in vitro ADME; conditions: human liver microsomes; human (H) liver microsome; read-out: Liver microsome stability (T1/2, min)
Method: as §1, §2, §3

MDR1 = experiment: Cell membrane permeability test on MDR1-MDCK II cells; type: in vitro ADME; conditions: dog; for Papp A→B at 150 min, 2 μM / Papp B→A at 150 min, 2 μM: pH=7.4; for efflux ratio at 150 min, 2 μM: pH 7.4, Papp B to A/Papp A to B
Method: Cell membrane permeability of a test compound was evaluated on MDR1-MDCK II cells.
A test compound (10 mM solution of the compound in DMSO) was diluted with a transfer buffer (HBSS with 10 mM Hepes, pH=7.4) to prepare a sample having a final concentration of 2 μM, followed by bidirectional (A-B and B-A) administration. After administration, the cell plate was incubated in an incubator with 5% CO2 and a saturated humidity at 37° C. for 150 minutes. After the 150-minute incubation, the sample was collected, and the concentration of the test compound in the transfer sample was semi-quantitatively determined by LC/MS/MS method.

SMILES: CC(C)CC(NC(=O)[C@H](Cc1ccccc1)NC(=O)[C@@H]1CCN1c1ccc(F)cc1)B(O)O (single isomer, unassigned) [WX-193]
- IC50 (MM1.S cells): 8.2 nM
- half-life [1]: 2.7 min
- half-life [2]: 4.6 min
- half-life [3]: 4.8 min
- Papp A→B at 150 min, 2 μM (MDR1): 0.1 ×10⁻⁶ cm/s
- Papp B→A at 150 min, 2 μM (MDR1): 13.1 ×10⁻⁶ cm/s
- efflux ratio at 150 min, 2 μM (MDR1): 131

SMILES: CC(C)CC(NC(=O)CNC(=O)[C@@H]1CCN1c1ccc(F)cc1)B(O)O (single isomer, unassigned) [WX-301]
- IC50 (MM1.S cells): 5.8 nM
- half-life [1]: 43.5 min
- half-life [2]: 42.1 min
- half-life [3]: 74.3 min

SMILES: CC(C)CC(NC(=O)[C@H](C)NC(=O)[C@@H]1CCN1c1ncc(F)cn1)B(O)O (single isomer, unassigned) [WX-313]
- IC50 (MM1.S cells): 24.5 nM
- half-life [1]: 52.5 min
- half-life [2]: 57.2 min
- half-life [3]: > 145 min
- Papp A→B at 150 min, 2 μM (MDR1): 0.2 ×10⁻⁶ cm/s
- Papp B→A at 150 min, 2 μM (MDR1): 1.29 ×10⁻⁶ cm/s
- efflux ratio at 150 min, 2 μM (MDR1): 7.16

SMILES: CC(C)CC(NC(=O)CNC(=O)[C@@H]1CCN1c1ccc(F)cn1)B(O)O (single isomer, unassigned) [WX-317]
- IC50 (MM1.S cells): 32 nM
- half-life [1]: 27.1 min
- half-life [2]: 35.5 min
- half-life [3]: 77 min
- Papp A→B at 150 min, 2 μM (MDR1): 0.01 ×10⁻⁶ cm/s
- Papp B→A at 150 min, 2 μM (MDR1): 0.05 ×10⁻⁶ cm/s
- efflux ratio at 150 min, 2 μM (MDR1): 5

SMILES: CC(C)CC(NC(=O)CNC(=O)[C@@H]1CCN1c1ccc(F)cc1F)B(O)O (single isomer, unassigned) [WX-333]
- IC50 (MM1.S cells): 1 nM
- half-life [1]: 67.4 min
- half-life [2]: 43.1 min
- half-life [3]: 67.4 min
- Papp A→B at 150 min, 2 μM (MDR1): 0.38 ×10⁻⁶ cm/s
- Papp B→A at 150 min, 2 μM (MDR1): 7.32 ×10⁻⁶ cm/s
- efflux ratio at 150 min, 2 μM (MDR1): 19.3

SMILES: CC(C)CC(NC(=O)[C@H](Cc1ccccc1)NC(=O)[C@@H]1CCN1c1nccc(-c2ccccc2)n1)B(O)O (some centres unmarked) [WX-174]
- IC50 (MM1.S cells): 5.8 nM
- half-life [1]: 0.8 min
- half-life [2]: 1.6 min
- half-life [3]: 3.5 min
- Papp A→B at 150 min, 2 μM (MDR1): 0.44 ×10⁻⁶ cm/s
- Papp B→A at 150 min, 2 μM (MDR1): 18.4 ×10⁻⁶ cm/s
- efflux ratio at 150 min, 2 μM (MDR1): 41.8

SMILES: CC(C)CC(NC(=O)[C@H](CC1CC1)NC(=O)[C@@H]1CCN1c1ncc(F)cn1)B(O)O (some centres unmarked) [WX-260]
- IC50 (MM1.S cells): 11 nM
- half-life [1]: 84.8 min
- half-life [2]: > 145 min
- half-life [3]: 108 min
- Papp A→B at 150 min, 2 μM (MDR1): 0.3 ×10⁻⁶ cm/s
- Papp B→A at 150 min, 2 μM (MDR1): 5.1 ×10⁻⁶ cm/s
- efflux ratio at 150 min, 2 μM (MDR1): 17

SMILES: CC(C)CC(NC(=O)[C@H](CC1CC1)NC(=O)[C@@H]1CCN1c1ccc(C(F)(F)F)cn1)B(O)O (some centres unmarked) [WX-306]
- IC50 (MM1.S cells): 8.2 nM
- half-life [1]: 14 min
- half-life [2]: 37.4 min
- half-life [3]: 17.8 min
- Papp A→B at 150 min, 2 μM (MDR1): 0.3 ×10⁻⁶ cm/s
- Papp B→A at 150 min, 2 μM (MDR1): 17.8 ×10⁻⁶ cm/s
- efflux ratio at 150 min, 2 μM (MDR1): 59.3

SMILES: CC(C)CC(NC(=O)[C@H](CC1CC1)NC(=O)[C@@H]1CCN1c1nc(C(F)(F)F)cs1)B(O)O (some centres unmarked) [WX-308]
- IC50 (MM1.S cells): 8.9 nM
- half-life [1]: 20.1 min
- half-life [2]: 26.8 min
- half-life [3]: 27.4 min
- Papp A→B at 150 min, 2 μM (MDR1): 0.2 ×10⁻⁶ cm/s
- Papp B→A at 150 min, 2 μM (MDR1): 15.3 ×10⁻⁶ cm/s
- efflux ratio at 150 min, 2 μM (MDR1): 76.5

SMILES: CC(C)CC(NC(=O)CNC(=O)[C@@H]1CCN1c1nc(C(F)(F)F)cs1)B(O)O (some centres unmarked) [WX-327]
- IC50 (MM1.S cells): 24.2 nM
- half-life [1]: 37.7 min
- half-life [2]: 26.5 min
- half-life [3]: 75 min
- Papp A→B at 150 min, 2 μM (MDR1): 0.24 ×10⁻⁶ cm/s
- Papp B→A at 150 min, 2 μM (MDR1): 2.24 ×10⁻⁶ cm/s
- efflux ratio at 150 min, 2 μM (MDR1): 9.33

SMILES: CC(C)CC(NC(=O)CNC(=O)[C@@H]1CCN1c1ccc(C(F)(F)F)cn1)B(O)O (some centres unmarked) [WX-329]
- IC50 (MM1.S cells): 11.5 nM
- half-life [1]: 40.3 min
- half-life [2]: 43.3 min
- half-life [3]: 51.5 min
- Papp A→B at 150 min, 2 μM (MDR1): 0.27 ×10⁻⁶ cm/s
- Papp B→A at 150 min, 2 μM (MDR1): 3.74 ×10⁻⁶ cm/s
- efflux ratio at 150 min, 2 μM (MDR1): 13.8

SMILES: CC(C)CC(NC(=O)CNC(=O)[C@@H]1CCN1c1ccc(C(F)(F)F)cc1Cl)B(O)O (some centres unmarked) [WX-351]
- IC50 (MM1.S cells): 45.9 nM

SMILES: CC(C)CC(NC(=O)CNC(=O)[C@@H]1CCN1c1ccc(C(F)(F)F)cc1F)B(O)O (some centres unmarked) [WX-355]
- IC50 (MM1.S cells): 28.8 nM

SMILES: CC(C)CC(NC(=O)CNC(=O)[C@@H]1CCN1c1ccc(C#N)cc1F)B(O)O (some centres unmarked) [WX-365]
- IC50 (MM1.S cells): 90.6 nM

SMILES: CC(C)CC(NC(=O)CNC(=O)[C@@H]1CCN1c1ccc(C(F)(F)F)nn1)B(O)O (some centres unmarked) [WX-367]
- IC50 (MM1.S cells): 183 nM

SMILES: CC(C)CC(NC(=O)CNC(=O)[C@@H]1CCN1c1c(F)cc(Cl)cc1F)B(O)O (some centres unmarked) [WX-373]
- IC50 (MM1.S cells): 26.7 nM

SMILES: CC(C)CC(NC(=O)CNC(=O)[C@@H]1CCN1c1ncc(F)cc1F)B(O)O (some centres unmarked) [WX-379]
- IC50 (MM1.S cells): 24 nM

SMILES: CC(C)CC(NC(=O)CNC(=O)[C@@H]1CCN1c1ccc(F)cc1Cl)B(O)O (some centres unmarked) [WX-381]
- IC50 (MM1.S cells): 119 nM

SMILES: CC(C)CC(NC(=O)CNC(=O)[C@@H]1CCN1c1ccc(Cl)cc1C(F)(F)F)B(O)O (some centres unmarked) [WX-385]
- IC50 (MM1.S cells): 104 nM

SMILES: CC(C)CC(NC(=O)CNC(=O)[C@@H]1CCN1c1cc(F)c(F)cc1F)B(O)O (some centres unmarked) [WX-391]
- IC50 (MM1.S cells): 5.4 nM
